{
  "source": "paper PMC8991007",
  "about": "“Benzylic Dehydroxylation of Echinocandin Antifungal Drugs Restores Efficacy against Resistance Conferred by Mutated Glucan Synthase” (Journal of the American Chemical Society, 2022)",
  "key": {"[1]": {"system": "C. albicans", "assay": "Minimum inhibitory concentration broth double-dilution assay", "type": "cell-based, Candida albicans", "conditions": "for MIC: 24 h, 30 °C", "method": "(§1) The antifungal activities of compounds 1 and 2 were evaluated against a panel of 50 strains of C. albicans and C. glabrata (Table S4), including echinocandin-resistant strains that were constructed by introducing mutations within and near the defined hotspots in the FKS1 and/or FKS2 genes.[27] To evaluate antifungal activity, we determined MIC values. The MIC was defined as the lowest drug concentration that led to turbidity (measured at 600 nm) of less than or equal to 35% of that of the untreated culture. As controls, we tested CSF, MCF, ANF, and RZF.\n(§2) All of the tested compounds were dissolved in anhydrous DMSO to a concentration of 5 mg/mL. Candida strains were streaked from a glycerol stock onto YPAD agar plates and grown for 24 h at 30 °C. Colonies were suspended in 1 mL of PBS and diluted to an O.D. of 0.01 at 600 nm with YPAD broth and added into flat-bottom 96-well microplates (Corning) containing a gradient of twofold dilutions per tested compound with concentrations ranging from 64 to 0.0009 μg/mL. Control wells with no drug and blank wells without yeast cells containing YPAD only were also prepared. […] Each concentration was tested in triplicate, and results were confirmed by at least two independent sets of experiments."}, "[2]": {"system": "C. glabrata", "assay": "Minimum inhibitory concentration broth double-dilution assay", "type": "cell-based, Candida glabrata", "conditions": "for MIC: 24 h, 30 °C", "method": "as §1, §2"}, "[3]": {"system": "HCT-116", "assay": "cells", "type": "cell-based", "conditions": "Homo sapiens; HCT-116 expressing GFP, 24 h, mean ± SD; read-out: IC50 (cell viability)", "method": "(§3) In this analysis, we used HCT-116, a human colorectal carcinoma cell line; UACC-62, a human melanoma cell line; Hs 578T, a human mammary gland carcinoma cell line, and SF-295, a human glioblastoma cell line. […] The highest concentration of the echinocandins used for the cell viability tests was determined based on the reported maximal plasma concentrations (Cmax) of ANF and RZF measured in humans. A Cmax of approximately 7 μM was measured during a pharmacokinetic study of ANF in patients with candidemia or invasive candidiasis who were treated with a 200 mg loading dose on day 1, followed by a daily 100 mg maintenance dose.[64]\n(§4) Human cell lines HCT-116, UACC-62, Hs 578T, and SF-295 were obtained from the Life Sciences Core Facilities of the Nancy & Stephen Grand Israel National Center for Personalized Medicine. Cell lines were grown in an RPMI medium (Gibco, cat. no. 21875-034) supplemented with 10% fetal calf serum (Biological Industries, cat. no. 04-007-1A), Pen/Strep (Biological Industries, cat. no. 03-031-1B), and glutamine (Biological Industries, cat. no. 03-020-1B). GFP was introduced into cells using TALENS according to a previously reported protocol.[73] GFP cells were selected by FACS and propagated.\n(§5) Assay-ready plates were designed using in-house software (CHEMPION, INCPM software development team) and prepared in 384-well Greiner plates (cat. no. 781091) using an Echo 555 Acoustic Liquid Handler (Labcyte). The final DMSO concentration in all samples was 0.4%. Prior to the experiment, cells were trypsinized and counted using a Countess cytometer. Cells were then diluted to 40,000 cells/mL in a fresh medium. Cells (50 μL/well; 2000 cells/well) were then dispensed with a Thermo Combi dispenser into plates containing predispensed compounds. After 30 min at room temperature to ensure uniform adherence of cells, the plates were moved to an automated incubator (Liconic STX44) and incubated at 37 °C. An automated confocal microscope with a 4× S Fluor lens (Molecular Devices ImageExpress) was used to acquire images of GFP-expressing cells after 24 h of incubation. Images were then analyzed using MetaExpress with a custom protocol (Custom Module Editor), and data were annotated and normalized using Genedata Screener software. Final normalized data were then loaded into CDD Vault software for comparative data visualization."}, "[4]": {"system": "UACC-62", "assay": "cells", "type": "cell-based", "conditions": "Homo sapiens; UACC-62 expressing GFP, 24 h, mean ± SD; read-out: IC50 (cell viability)", "method": "as §3, §4, §5"}, "[5]": {"system": "Hs 578T", "assay": "Phenotypic viability assay of GFP reporter cell line", "type": "cell-based", "conditions": "Homo sapiens; Hs 578T expressing GFP, 24 h, mean ± SD", "method": "as §3, §4, §5"}, "[6]": {"system": "THLE-2 cells", "assay": "cells", "type": "cell-based", "conditions": "Homo sapiens", "method": "The effects of ANF and RZF and their dehydroxylated derivatives 1 and 2 on the viability of human cells were further evaluated in an assay with THLE-2 cells, which are a transformed human liver epithelial cell line. These cells express phenotypic characteristics of normal adult liver epithelial cells.\nTHLE-2 cells (ATCC, cat. no. CRL2706) were cultured in 384-well plates coated with BEBM (Lonza, cat. no CC3170) containing 100 μg/mL BSA, 1:100 fibronectin (Sigma, cat. no. F0895), and a 1:100 PureCol EZ Gel Solution (Sigma, cat. no. 5074) for 50–60 min at 37 °C. THLE-2 cells were plated at a density of 2.5 × 10^3 cells/well in the coated plates in a total volume of 20 μL. Culture media were BEGM supplemented with 5 ng/mL hEGF (Sigma, cat. no. E5036), 70 ng/mL phosphoethanolamine (Sigma, cat. no. P0503), and 10% fetal bovine serum. Plates were incubated overnight at 37 °C, 95% humidity, and 5% CO2. The culture medium was replaced with 50 μL of a fresh medium, and compounds were applied to the cells in triplicate. Plates were cultured for another 72 h, and ATP was quantified using a CellTiter-Glo kit (Promega #G7573) according to the manufacturer’s protocol. The luminescence signal was detected using a PHERAstar FS (BMG Labtech)."}},
  "note": "Where two headings read alike, the source gives them in different places. *1 amine or outer side, *2 acyl side, *3 side chain or, on linkers, in order; H or OH if unused. Where a SMILES comes first, the peptide text is derived from it. Bridges are numbered along the chain shown (N, C = ends). [ ]: non-standard residue; d: D form. The star is where a group is joined. pTerphenylCO(4''-OnC5H11) = CCCCCOc1ccc(-c2ccc(-c3ccc(C(=O)*)cc3)cc2)cc1; Orn(4R-OH,5R-OH) = O=C([C@H](C[C@@H](O)[C@@H](O)N[*:3])N[*:1])[*:2]; Pro(3S-OH,4S-Me) = C[C@H]1CN[C@H](C(=O)O)[C@H]1O; hTyr(3R-OH) = N[C@H](C(=O)O)[C@H](O)Cc1ccc(O)cc1; Hyp = O=C(O)[C@@H]1C[C@@H](O)CN1",
  "data": [
    {"smiles": "CCCCCOc1ccc(-c2ccc(-c3ccc(C(=O)N[C@H]4C[C@@H](O)[C@@H](O)NC(=O)[C@@H]5[C@@H](O)[C@@H](C)CN5C(=O)[C@H]([C@@H](C)O)NC(=O)[C@H]([C@H](O)Cc5ccc(O)cc5)NC(=O)[C@@H]5C[C@@H](O)CN5C(=O)[C@H]([C@@H](C)O)NC4=O)cc3)cc2)cc1", "note": "[Compound 1, dehydroxy-ANF] ({pTerphenylCO(4''-OnC5H11)}-[Orn(4R-OH,5R-OH)]T[Hyp][hTyr(3R-OH)]T[Pro(3S-OH,4S-Me)]; lactam 1-C)", "values": [
      {"measurement": "MIC", "setting": "[1]; #1 C. albicans Sc5314", "value": 0.008, "unit": "µg/mL"},
      {"measurement": "MIC", "setting": "[1]; #2 C. albicans DPL1015 (DP-A15)", "value": 0.031, "unit": "µg/mL"},
      {"measurement": "MIC", "setting": "[1]; #3 C. albicans DPL1016 (DP-A15-10)", "value": 1, "unit": "µg/mL"},
      {"measurement": "MIC", "setting": "[1]; #4 C. albicans T-2068 (DP-C42)", "value": 0.25, "unit": "µg/mL"},
      {"measurement": "MIC", "setting": "[1]; #5 C. albicans T-2069 (DP-85)", "value": 0.5, "unit": "µg/mL"},
      {"measurement": "MIC", "setting": "[1]; #6 C. albicans (DP-89)", "value": 1, "unit": "µg/mL"},
      {"measurement": "MIC", "setting": "[1]; #7 C. albicans T-2076 (DP-194)", "value": 0.5, "unit": "µg/mL"},
      {"measurement": "MIC", "setting": "[1]; #8 C. albicans T-2077 (DP-205)", "value": 0.125, "unit": "µg/mL"},
      {"measurement": "MIC difference between ANF and dehydroxy derivative 1 (ratio MIC (ANF)/MIC (1))", "setting": "[1]; C. albicans strain 4, Fks1 phenylalanine 641 to serine", "value": 8, "unit": "fold"},
      {"measurement": "MIC", "setting": "[2]; #9 C. glabrata EF1620", "value": 0.004, "unit": "µg/mL"},
      {"measurement": "MIC", "setting": "[2]; #10 C. glabrata TGL00277", "value": 8, "unit": "µg/mL"},
      {"measurement": "MIC", "setting": "[2]; #11 C. glabrata TGL00275", "value": 8, "unit": "µg/mL"},
      {"measurement": "MIC", "setting": "[2]; #12 C. glabrata CST78", "value": 0.002, "unit": "µg/mL"},
      {"measurement": "MIC", "setting": "[2]; #13 C. glabrata TGL00265", "value": 1, "unit": "µg/mL"},
      {"measurement": "MIC", "setting": "[2]; #14 C. glabrata TGL00264", "value": "> 64", "unit": "µg/mL"},
      {"measurement": "MIC", "setting": "[2]; #15 C. glabrata TGL00263", "value": 1, "unit": "µg/mL"},
      {"measurement": "MIC", "setting": "[2]; #16 C. glabrata TGL00065", "value": 16, "unit": "µg/mL"},
      {"measurement": "MIC", "setting": "[2]; #17 C. glabrata CST34", "value": 0.002, "unit": "µg/mL"},
      {"measurement": "MIC", "setting": "[2]; #18 C. glabrata TGL00258", "value": 32, "unit": "µg/mL"},
      {"measurement": "MIC", "setting": "[2]; #19 C. glabrata TGL00256", "value": 0.25, "unit": "µg/mL"},
      {"measurement": "MIC", "setting": "[2]; #20 C. glabrata TGL00107", "value": "> 64", "unit": "µg/mL"},
      {"measurement": "MIC", "setting": "[2]; #21 C. glabrata TGL00056", "value": "> 64", "unit": "µg/mL"},
      {"measurement": "MIC", "setting": "[2]; #22 C. glabrata M12", "value": 0.002, "unit": "µg/mL"},
      {"measurement": "MIC", "setting": "[2]; #23 C. glabrata TGL00270", "value": 1, "unit": "µg/mL"},
      {"measurement": "MIC", "setting": "[2]; #24 C. glabrata TGL00269", "value": 0.063, "unit": "µg/mL"},
      {"measurement": "MIC", "setting": "[2]; #25 C. glabrata TGL00268", "value": "> 64", "unit": "µg/mL"},
      {"measurement": "MIC", "setting": "[2]; #26 C. glabrata TGL00268", "value": "> 64", "unit": "µg/mL"},
      {"measurement": "MIC", "setting": "[2]; #27 C. glabrata EB0911", "value": 0.002, "unit": "µg/mL"},
      {"measurement": "MIC", "setting": "[2]; #28 C. glabrata TGL00261", "value": 0.25, "unit": "µg/mL"},
      {"measurement": "MIC", "setting": "[2]; #29 C. glabrata TGL00109", "value": 64, "unit": "µg/mL"},
      {"measurement": "MIC", "setting": "[2]; #30 C. glabrata TGL00259", "value": 4, "unit": "µg/mL"},
      {"measurement": "MIC", "setting": "[2]; #31 C. glabrata EF1237", "value": 0.001, "unit": "µg/mL"},
      {"measurement": "MIC", "setting": "[2]; #36 C. glabrata F15", "value": 0.002, "unit": "µg/mL"},
      {"measurement": "MIC", "setting": "[2]; #38 C. glabrata CBS138 (ATCC 2001)", "value": 0.004, "unit": "µg/mL"},
      {"measurement": "MIC", "setting": "[2]; #41 C. glabrata P35_2", "value": 0.002, "unit": "µg/mL"},
      {"measurement": "MIC", "setting": "[2]; #43 C. glabrata SLL2glab", "value": 0.002, "unit": "µg/mL"},
      {"measurement": "MIC", "setting": "[2]; #46 C. glabrata BG2", "value": 0.001, "unit": "µg/mL"},
      {"measurement": "increase in potency on dehydroxylation of ANF (ratio MIC (ANF)/MIC (1))", "setting": "[2]; C. glabrata strain 28, Fks2 phenylalanine 659 deleted", "value": 8, "unit": "fold"},
      {"measurement": "IC50", "setting": "[3]", "value": "> 40", "unit": "µM"},
      {"measurement": "IC50", "setting": "[4]", "value": "> 40", "unit": "µM"},
      {"measurement": "IC50", "setting": "[5]", "value": "> 40", "unit": "µM"},
      {"measurement": "IC50", "setting": "[6]; THLE-2, 72 h of incubation, ranges for ANF and 1 and for RZF and 2 stated jointly, read-out: IC50 value (THLE-2 viability)", "value": "36 to 41", "unit": "µM"},
      {"measurement": "IC50", "setting": "[6]; THLE-2, 72 h, ATP luminescence, read-out: IC50 (cell viability)", "value": "36.4 ± 2.75", "unit": "µM"}
    ]}
  ]
}
